“And” between values parts separate entries of the source, which are not always exact repeats. Equal values may be shown once. Toxic doses and inconclusive results are not listed. The calls were made as follows: active = survival T/C of 150% or more; inactive = T/C below 125% in these data.
Tested on: P388 leukemia ip, CD2F1 mice, survival T/C
Assay: NCI In Vivo Anticancer Drug Screen. Data for tumor model P388 Leukemia (intraperitoneal) in CD2F1 (CDF1) mice
Details: endpoint: median survival time, higher = longer survival
Summary of the method: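 Mice carrying the transplanted tumor received test compound or vehicle. Survival was recorded in each group, and the value is the treated-group measurement divided by that of the vehicle-treated control group.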

[1] = dose: 50.0 mg/kg/injection, schedule: Q01DX005 (ip), vehicle: Klucel (hydroxypropylcellulose) (HPC)
[2] = dose: 100.0 mg/kg/injection, schedule: Q01DX005 (ip), vehicle: Klucel (hydroxypropylcellulose) (HPC)
[3] = dose: 200.0 mg/kg/injection, schedule: Q01DX005 (ip), vehicle: Klucel (hydroxypropylcellulose) (HPC)
[4] = dose: 12.5 mg/kg/injection, schedule: Q01DX009 (ip), vehicle: Klucel (hydroxypropylcellulose) (HPC)
[5] = dose: 25.0 mg/kg/injection, schedule: Q01DX009 (ip), vehicle: Klucel (hydroxypropylcellulose) (HPC)
[6] = dose: 50.0 mg/kg/injection, schedule: Q01DX009 (ip), vehicle: Klucel (hydroxypropylcellulose) (HPC)
[7] = dose: 200.0 mg/kg/injection, schedule: Q01DX009 (ip), vehicle: Klucel (hydroxypropylcellulose) (HPC)
[8] = dose: 12.5 mg/kg/injection, schedule: Q01DX009 (ip), vehicle: saline with Tween-80
[9] = dose: 25.0 mg/kg/injection, schedule: Q01DX009 (ip), vehicle: saline with Tween-80
[10] = dose: 50.0 mg/kg/injection, schedule: Q01DX005 (ip), vehicle: saline with Tween-80
[11] = dose: 100.0 mg/kg/injection, schedule: Q01DX005 (ip), vehicle: saline with Tween-80
[12] = dose: 200.0 mg/kg/injection, schedule: Q01DX005 (ip), vehicle: saline with Tween-80
[13] = dose: 60.0 mg/kg/injection, schedule: Q01DX005 (ip), vehicle: saline with Tween-80
[14] = dose: 120.0 mg/kg/injection, schedule: Q01DX005 (ip), vehicle: saline with Tween-80
[15] = dose: 25.0 mg/kg/injection, schedule: Q01DX005 (ip), vehicle: Klucel (hydroxypropylcellulose) (HPC)
[16] = dose: 100.0 mg/kg/injection, schedule: Q01DX009 (ip), vehicle: Klucel (hydroxypropylcellulose) (HPC)
[17] = dose: 400.0 mg/kg/injection, schedule: Q01DX009 (ip), vehicle: Klucel (hydroxypropylcellulose) (HPC)

Measured: T/C

CC(NC(=O)OCc1ccccc1)C(=O)NCC(=O)OCc1ccccc1 (stereo not drawn)
inactive: [1] 100 % of control | [2] 98 % of control | [3] 104 % of control

CS(=O)(=O)OC1COCOC1C1OCOCC1OS(C)(=O)=O (stereo not drawn)
inactive: [4] 91 % of control | [5] 92 % of control | [6] 95 % of control | [7] 102 % of control

COc1ccc2c(c1)CCc1cn[nH]c1-2
inactive: [1] 93 % of control | [2] 92 % of control | [3] 93 % of control

CC1(C)C2C=CC(OC2=O)C1(C)NC(=O)OCc1ccccc1 (stereo not drawn)
inactive: dose: 50.0 mg/kg/injection, schedule: Q01DX009 (ip), vehicle: saline 96 % of control | dose: 100.0 mg/kg/injection, schedule: Q01DX009 (ip), vehicle: saline 98 % of control | dose: 200.0 mg/kg/injection, schedule: Q01DX009 (ip), vehicle: saline 99 % of control

Nc1nc2c(c(-c3nc(N)nc4c3CCc3ccccc3-4)n1)CCc1ccccc1-2
inactive: dose: 60.0 mg/kg/injection, schedule: Q01DX005 (ip), vehicle: saline 105 % of control | dose: 120.0 mg/kg/injection, schedule: Q01DX005 (ip), vehicle: saline 99 % of control | dose: 240.0 mg/kg/injection, schedule: Q01DX005 (ip), vehicle: saline 107 % of control

CN(C)C(=S)SCNC(=S)NCSC(=S)N(C)C
inactive: dose: 6.25 mg/kg/injection, schedule: Q01DX009 (ip), vehicle: saline with Tween-80 104 % of control | [8] 110 % of control and 117 % of control | [9] 116 % of control and 121 % of control

COc1ccc(/C(C)=N/[O-])cc1CS[n+]1ccccc1
inactive: dose: 50.0 mg/kg/injection, schedule: Q01DX005 (ip), vehicle: distilled water + Tween-80 + alcohol 104 % of control | dose: 100.0 mg/kg/injection, schedule: Q01DX005 (ip), vehicle: distilled water + Tween-80 + alcohol 95 % of control | dose: 200.0 mg/kg/injection, schedule: Q01DX005 (ip), vehicle: distilled water + Tween-80 + alcohol 104 % of control

CCc1ccc2c(-c3ccccc3)c3ccccc3c(-c3ccccc3)c2c1
inactive: dose: 12.5 mg/kg/injection, schedule: Q01DX005 (ip), vehicle: saline with Tween-80 96 % of control | dose: 25.0 mg/kg/injection, schedule: Q01DX005 (ip), vehicle: saline with Tween-80 99 % of control | [10] 88 % of control and 90 % of control | [11] 90 % of control | [12] 88 % of control

CCCCCCCCCCCCCCCCCC[N+]1(CCCC)CCOCC1
inactive: [8] 102 % of control | [9] 108 % of control | dose: 50.0 mg/kg/injection, schedule: Q01DX009 (ip), vehicle: saline with Tween-80 101 % of control and 114 % of control

C[C@@H]1CC(c2ccc(Cl)cc2)[C@@H](c2ccccc2)C(=O)O1 (stereo partly drawn)
inactive: dose: 100.0 mg/kg/injection, schedule: Q04DX003 (ip), vehicle: Klucel (hydroxypropylcellulose) (HPC) 100 % of control | dose: 200.0 mg/kg/injection, schedule: Q04DX003 (ip), vehicle: Klucel (hydroxypropylcellulose) (HPC) 99 % of control | dose: 400.0 mg/kg/injection, schedule: Q04DX003 (ip), vehicle: Klucel (hydroxypropylcellulose) (HPC) 97 % of control

O=[N+]([O-])c1ccccc1NC1CCN(CCCC2(c3ccc(F)cc3)OCCO2)CC1
inactive: [13] 97 % of control | [14] 101 % of control | dose: 240.0 mg/kg/injection, schedule: Q01DX005 (ip), vehicle: saline with Tween-80 99 % of control

COC(=O)/C(C#N)=C/c1cc(OC)c(O)cc1Br
inactive: [15] 104 % of control | [1] 104 % of control and 88 % of control | [2] 105 % of control | [3] 100 % of control

CC(ON)C(=O)O (stereo not drawn)
inactive: dose: 6.25 mg/kg/injection, schedule: Q01DX005 (ip), vehicle: saline 96 % of control | dose: 12.5 mg/kg/injection, schedule: Q01DX005 (ip), vehicle: saline 102 % of control | dose: 25.0 mg/kg/injection, schedule: Q01DX005 (ip), vehicle: saline 102 % of control | dose: 50.0 mg/kg/injection, schedule: Q01DX005 (ip), vehicle: saline 99 % of control

COc1ccc2c(c1)OC(C)(C)[C@H](c1ccc(O)cc1)[C@@H]2c1ccccc1
inactive: [13] 90 % of control | [14] 90 % of control

CC(=O)c1c(C(=O)O)n([O-])c2ccccc2[n+]1=O
inactive: [10] 97 % of control | [11] 94 % of control | [12] 112 % of control

O=c1[nH]cc(NS(=O)(=O)c2ccccc2)c(=O)[nH]1
inactive: [13] 105 % of control | [14] 101 % of control

C=C1C(=O)OC2/C=C(\CO)C3OC3C3OC3(C)CC(OC(=O)/C(=C/C)COC(C)=O)C12 (stereo not drawn)
inactive: [15] 98 % of control | [1] 114 % of control

COc1cc(I)cc(OC)c1OC
inactive: dose: 6.25 mg/kg/injection, schedule: Q01DX009 (ip), vehicle: Klucel (hydroxypropylcellulose) (HPC) 97 % of control | [4] 94 % of control | [5] 96 % of control | [6] 91 % of control

CCOC(=O)C1(C(=O)OCC)CCC1
inactive: [6] 100 % of control | [16] 92 % of control | [7] 96 % of control | [17] 101 % of control

COc1ccc(Cc2cc3c(cc2OCC(=O)Nc2ncccn2)OCO3)cc1
inactive: [10] 108 % of control | [11] 88 % of control | [12] 87 % of control

NNS(=O)(=O)c1ccc(Cl)cc1
inactive: dose: 25.0 mg/kg/injection, schedule: Q01DX009 (ip), vehicle: other 117 % of control | dose: 50.0 mg/kg/injection, schedule: Q01DX009 (ip), vehicle: other 113 % of control | dose: 100.0 mg/kg/injection, schedule: Q01DX009 (ip), vehicle: other 120 % of control | dose: 200.0 mg/kg/injection, schedule: Q01DX009 (ip), vehicle: other 120 % of control

CN(/C(=N/C(=S)NCc1ccccc1)SCc1ccccc1)c1ccccc1
inactive: [10] 94 % of control | [11] 86 % of control

Cc1ccc(S(=O)(=O)N/N=C\C(O)C(O)C(O)CO)cc1 (stereo not drawn)
inactive: [6] 114 % of control | [16] 106 % of control | [7] 107 % of control | [17] 104 % of control

Cc1cc(Cl)nc2c1ccn2C1OCC(O)C(O)C1O (stereo not drawn)
inactive: dose: 16.0 mg/kg/injection, schedule: Q01DX001 (ip), vehicle: saline with Tween-80 102 % of control and 107 % of control | dose: 32.0 mg/kg/injection, schedule: Q01DX001 (ip), vehicle: saline with Tween-80 98 % of control and 107 % of control | dose: 64.0 mg/kg/injection, schedule: Q01DX001 (ip), vehicle: saline with Tween-80 107 % of control

O=C(O)C1=C(C(=O)O)CCC1
inactive: dose: 25.0 mg/kg/injection, schedule: Q01DX009 (ip), vehicle: distilled water + Tween-80 100 % of control | dose: 50.0 mg/kg/injection, schedule: Q01DX009 (ip), vehicle: distilled water + Tween-80 91 % of control | dose: 100.0 mg/kg/injection, schedule: Q01DX009 (ip), vehicle: distilled water + Tween-80 89 % of control

CCOC(=O)C1(c2ccccc2)CCCN(C)CC1 (stereo not drawn)
inactive: dose: 25.0 mg/kg/injection, schedule: Q04DX003 (ip), vehicle: saline 107 % of control | dose: 50.0 mg/kg/injection, schedule: Q04DX003 (ip), vehicle: saline 107 % of control | dose: 100.0 mg/kg/injection, schedule: Q04DX003 (ip), vehicle: saline 98 % of control
